Assay results reported in BigSolDB 2.1.

CC(C)OC(=O)[C@H](C)N[P@](=O)(Oc1ccccc1)Oc1c(F)c(F)c(F)c(F)c1F
solubility (mole fraction)
Conditions | in acetone | in acetonitrile | in ethanol | in ethyl acetate | in isopropanol | in methanol | in n-butanol | in n-propanol | in toluene | in water
278.15 K | 0.00921 | 0.00297 | 0.0019 | 0.0073 | 0.00118 | 0.0023 | 0.000812 | 0.00144 | 0.00381 | 2.39e-05
283.15 K | 0.0111 | 0.0036 | 0.00234 | 0.00889 | 0.00156 | 0.0028 | 0.0011 | 0.00191 | 0.00469 | 3.23e-05
288.15 K | 0.0132 | 0.00439 | 0.00293 | 0.0108 | 0.00204 | 0.00347 | 0.00152 | 0.00246 | 0.00572 | 4.42e-05
293.15 K | 0.0159 | 0.00538 | 0.00366 | 0.0132 | 0.00265 | 0.00423 | 0.00198 | 0.00311 | 0.00696 | 6.06e-05
298.15 K | 0.019 | 0.00653 | 0.00451 | 0.0157 | 0.00343 | 0.00519 | 0.00267 | 0.0039 | 0.00848 | 7.96e-05
303.15 K | 0.0226 | 0.00787 | 0.00556 | 0.0191 | 0.00431 | 0.00632 | 0.00348 | 0.0049 | 0.0103 | 0.000106
308.15 K | 0.0268 | 0.00941 | 0.00686 | 0.0227 | 0.00545 | 0.00766 | 0.00463 | 0.00608 | 0.0125 | 0.000137
313.15 K | 0.0315 | 0.0113 | 0.00836 | 0.0269 | 0.00692 | 0.00927 | 0.00609 | 0.00748 | 0.0151 | 0.000182
318.15 K | 0.0371 | 0.0133 | 0.0101 | 0.032 | 0.00875 | 0.0111 | 0.00789 | 0.00927 | 0.0181 | 0.000235
